These results are taken from patent US10526319B2, “Halogenated quinazolin-THF-amines as PDE1 inhibitors” (H. Lundbeck A/S, priority 2014, dated 2020).

Usually IC50 stands for the point on the concentration scale where inhibition reaches its midpoint.

Common to all, as to assay type: biochemical
Common to all, as to conditions: 15 nM tritium labelled cAMP, 1 h at room temperature

One experiment addresses PDE1B (Homo sapiens, UniProt Q01064). Put plainly: PDE1 inhibition assay (SPA, tritium labelled cAMP), PDE1B. The method, then: (§1) PDE1A, PDE1B and PDE1C assays were performed as follows: the assays was performed in 60 μL samples containing a fixed amount of the PDE1 enzym1 (sufficient to convert 20-25% of the cyclic nucleotide substrate), a buffer (50 mM HEPES pH 7.6; 10 mM MgCl2; 0.02% Tween20), 0.1 mg/ml BSA, 15 nM tritium labelled cAMP and varying amounts of inhibitors. Reactions were initiated by addition of the cyclic nucleotide substrate, and reactions were allowed to proceed for 1 h at room temperature before being terminated through mixing with 20 μL (0.2 mg) yttrium silicate SPA beads (PerkinElmer). The beads were allowed to settle for 1 h in the dark before the plates were counted in a Wallac 1450 Microbeta counter. The measured signals were converted to activity relative to an uninhibited control (100%) and IC50 values were calculated using XlFit (model 205, IDBS).

The target in the next experiment is PDE1A (Homo sapiens, UniProt P54750). In words: PDE1 inhibition assay (SPA, tritium labelled cAMP), PDE1A. Here is the method: as §1
Another experiment has as its target PDE1C (Homo sapiens, UniProt Q14123). In words: PDE1 inhibition assay (SPA, tritium labelled cAMP), PDE1C. Here is the method: as §1

Chain of PDE1B (Q01064 whole entry): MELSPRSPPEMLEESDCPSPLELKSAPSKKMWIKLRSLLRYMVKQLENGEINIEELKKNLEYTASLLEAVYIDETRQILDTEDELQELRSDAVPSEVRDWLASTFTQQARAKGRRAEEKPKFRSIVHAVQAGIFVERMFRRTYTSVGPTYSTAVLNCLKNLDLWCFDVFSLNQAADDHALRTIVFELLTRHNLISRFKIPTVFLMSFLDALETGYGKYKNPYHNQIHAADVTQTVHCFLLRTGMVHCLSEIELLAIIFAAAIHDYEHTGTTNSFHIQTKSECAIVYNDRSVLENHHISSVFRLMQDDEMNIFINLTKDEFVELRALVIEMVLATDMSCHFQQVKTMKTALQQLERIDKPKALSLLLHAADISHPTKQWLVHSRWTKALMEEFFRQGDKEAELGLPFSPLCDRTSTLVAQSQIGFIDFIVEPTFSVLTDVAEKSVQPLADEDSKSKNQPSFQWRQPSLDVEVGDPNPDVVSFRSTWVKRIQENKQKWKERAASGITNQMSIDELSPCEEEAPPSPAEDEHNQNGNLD
Chain of PDE1A (P54750 whole entry): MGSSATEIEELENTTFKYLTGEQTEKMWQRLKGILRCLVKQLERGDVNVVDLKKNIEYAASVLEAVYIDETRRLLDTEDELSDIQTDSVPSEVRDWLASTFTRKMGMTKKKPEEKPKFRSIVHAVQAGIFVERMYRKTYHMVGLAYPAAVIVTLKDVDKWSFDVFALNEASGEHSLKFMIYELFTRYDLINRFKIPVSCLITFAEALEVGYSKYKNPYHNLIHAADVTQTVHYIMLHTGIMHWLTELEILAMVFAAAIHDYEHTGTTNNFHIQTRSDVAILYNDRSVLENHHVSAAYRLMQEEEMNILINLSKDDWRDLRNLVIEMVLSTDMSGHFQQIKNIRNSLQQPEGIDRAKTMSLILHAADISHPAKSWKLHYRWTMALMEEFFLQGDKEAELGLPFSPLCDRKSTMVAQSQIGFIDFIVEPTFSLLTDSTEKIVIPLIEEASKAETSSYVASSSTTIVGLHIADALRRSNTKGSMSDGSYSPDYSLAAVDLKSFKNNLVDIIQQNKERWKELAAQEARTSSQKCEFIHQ
Chain of PDE1C (Q14123 whole entry): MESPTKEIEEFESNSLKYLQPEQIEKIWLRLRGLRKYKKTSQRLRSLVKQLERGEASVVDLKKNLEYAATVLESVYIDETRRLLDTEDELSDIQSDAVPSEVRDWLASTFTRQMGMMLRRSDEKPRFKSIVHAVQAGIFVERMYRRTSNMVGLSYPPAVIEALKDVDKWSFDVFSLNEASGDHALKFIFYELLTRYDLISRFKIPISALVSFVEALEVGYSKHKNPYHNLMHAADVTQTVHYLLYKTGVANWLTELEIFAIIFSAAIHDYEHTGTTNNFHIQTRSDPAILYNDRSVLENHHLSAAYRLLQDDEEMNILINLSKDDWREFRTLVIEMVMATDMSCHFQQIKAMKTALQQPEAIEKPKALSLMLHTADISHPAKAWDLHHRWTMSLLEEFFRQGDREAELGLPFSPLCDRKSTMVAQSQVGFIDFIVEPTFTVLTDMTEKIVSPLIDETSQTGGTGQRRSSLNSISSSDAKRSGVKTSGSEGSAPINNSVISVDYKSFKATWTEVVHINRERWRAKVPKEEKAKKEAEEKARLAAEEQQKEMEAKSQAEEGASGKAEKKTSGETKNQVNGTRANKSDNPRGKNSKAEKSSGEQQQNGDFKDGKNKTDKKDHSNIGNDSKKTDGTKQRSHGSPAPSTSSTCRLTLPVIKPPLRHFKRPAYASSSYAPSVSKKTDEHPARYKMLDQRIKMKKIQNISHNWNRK

`COc1ccc2c(NC3(C)CCOC3C)ncnc2c1Cl` (single isomer, unassigned) [12 Stereoisomer 3]: the IC50 at PDE1B worked out at 21 nM; against PDE1A, 145 nM; against PDE1C, 14 nM.

On to `COc1ccc2c(NC3CCOC3C)ncnc2c1F` (single isomer, unassigned) [3 Stereoisomer 3], for which the IC50 against PDE1B is 70 nM; against PDE1A, 530 nM; on PDE1C, 310 nM.

With `COc1ccc2c(N(C)C3(C)CCOC3C)ncnc2c1Cl` (single isomer, unassigned) [13 Stereoisomer 3], the IC50 at PDE1B came out at 7 nM; at PDE1A, 85 nM; at PDE1C, 5 nM.

Take `COc1ccc2c(N(C)C3CCOC3C)ncnc2c1F` (single isomer, unassigned) [18 Stereoisomer 2]: the IC50 against PDE1B came to 550 nM; against PDE1A, 2470 nM; against PDE1C it was 1400 nM.

Take `COc1ccc2c(NC3CCOC3)ncnc2c1Cl` (single isomer, unassigned) [4 Stereoisomer 2]: the IC50 against PDE1B worked out at 45 nM; at PDE1A it was 190 nM; at PDE1C it was 33 nM.
